Literature values, collected in US5043340A, “Derivatives of 4-desacetyl VLB C-3 carboxhydrazide” (Eli Lilly and Company, priority 1990, dated 1991).

Assays:
Gardner lymphosarcoma = conditions: mouse, in vivo; cited from earlier work
transplanted tumors = conditions: mouse, in vivo; cited from earlier work
P 1534(J) leukemia = conditions: mouse, in vivo; cited from earlier work
[1] = tested on: Ridgeway osteogenic sarcoma; conditions: mouse, in vivo; cited from earlier work
[2] = in humans, compared with vincristine; cited from earlier work
[3] = tested on: vincristine-resistant leukemias; conditions: in humans; cited from earlier work

CCC1(O)CC2CN(CCc3c([nH]c4ccccc34)C(C(=O)OC)(c3cc4c(cc3OC)N(C)C3C(O)(C(=O)NN)C(O)C5(CC)C=CCN6CCC43C65)C2)C1 (stereo not drawn) [4-desacetyl VLB C-3 carboxhydrazide]
activity against Gardner lymphosarcoma (Gardner lymphosarcoma): active
anti-tumor activity (transplanted tumors): active anti-tumor agent against transplanted tumors in mice
activity against P 1534(J) leukemia (P 1534(J) leukemia): active
activity against Ridgeway osteogenic sarcoma [1]: active

CC[C@]1(O)C[C@@H]2CN(CCc3c([nH]c4ccccc34)[C@@](C(=O)OC)(c3cc4c(cc3OC)N(C)[C@H]3[C@@](O)(C(N)=O)[C@H](O)[C@]5(CC)C=CCN6CC[C@]43[C@@H]65)C2)C1 [vindesine, 4-desacetyl VLB C-3 carboxamide]
neurotoxicity [2]: less neurotoxicity than does vincristine
effective against vincristine-resistant leukemias [3]: apparently effective against vincristine-resistant leukemias
